In experiment [1] the target is T1, Avi-KRAS G12D (1-169) GppNHp/RAF1 RBD-3×FLAG (52-151) (Homo sapiens, UniProt P01116, G12D).
T1 construct: Avi-KRAS G12D (1-169) GppNHp
Description: HTRF Raf1-KRAS G12D-GppNHp disruption assay. It counts as biochemical. As to conditions: 1 h incubation. The procedure:
(§1) The HTRF assay employed the following protocol:
(§2) Compounds were dispensed in assay plate (384-well, Grenier Bione #784075) using Echo (model 555) with dose response settings: 200 nL final volume, titration from 100 μM as a 10-point dilution series. Protein mix was prepared in assay buffer, and dispensed on plates, 10 μL per well, then incubated for 1 h at room temperature, with 700 rpm shaking. Reagents mix was prepared and dispensed on plates, 10 μL per well, then incubated for 1 h at room temperature, with 700 rpm shaking.
(§3) Plates were analyzed on an Envision plate reader using the following setting: Excitation 320 nm, Bandwidth […]; Emission 615 nm, Bandwidth […], Gain 100%, Flashes 100, Lag 60 μs. Data was reported as percentage of activity, with DMSO as 100%. Data was plotted and analyzed using Prism 8.
(In TR-FRET formats the signal depends on donor and acceptor labels being close together.)

In experiment [2] the target is T2, Avi-KRAS G12D/Q25A (1-169) GppNHp/3×FLAG-PI3KCA (157-299) (Homo sapiens, UniProt P01116, G12D/Q25A).
T2 construct: Avi-KRAS G12D/Q25A (1-169) GppNHp
Description: HTRF PI3KCA-KRAS G12D/Q25A-GppNHp disruption assay. It counts as biochemical. Conditions: 1 h incubation. The procedure: as §1, §2, §3

The values below come from patent US20240246954A1, “COMPOSITIONS AND METHODS FOR INHIBITING KRAS” (TheRas, Inc., priority 2021, published 2024).

T2 sequence (P01116 1-169 isoform P01116-2 G12D/Q25A limits assumed): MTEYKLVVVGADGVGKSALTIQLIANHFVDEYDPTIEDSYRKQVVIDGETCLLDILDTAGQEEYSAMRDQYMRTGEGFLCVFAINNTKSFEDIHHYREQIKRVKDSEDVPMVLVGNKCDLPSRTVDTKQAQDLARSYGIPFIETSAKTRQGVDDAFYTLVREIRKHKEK
T1 sequence (P01116 1-169 isoform P01116-2 G12D limits assumed): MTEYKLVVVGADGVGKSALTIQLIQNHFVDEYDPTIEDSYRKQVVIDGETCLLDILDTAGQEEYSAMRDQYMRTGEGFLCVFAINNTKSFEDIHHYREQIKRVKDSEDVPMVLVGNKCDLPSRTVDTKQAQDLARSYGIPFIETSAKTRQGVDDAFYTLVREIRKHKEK

The IC50 is the midpoint of a concentration-inhibition curve. A low value points to inhibition by little substance. As to `CN1CCC[C@H]1COc1nc(N(C2CC2)C2CNC2)c2cc(Cl)c(-c3ccc(F)c4sc(N)nc34)c(F)c2n1` [Compound 152], the half-inhibitory concentration (IC50) in experiment [1] and in experiment [2] was 10 to 30 µM in each case.
For the molecule `NCC(=O)N1CC[C@@H]2[C@H]1CN2c1nc(OCC23CCCN2CCC3)nc2c(F)c(-c3ccc(F)c4sc(N)nc34)c(-c3ccoc3)cc12` [Compound 153], the 50% inhibitory concentration (IC50) lay within 1 to 10 µM in experiment [1] and 10 to 30 µM in experiment [2].
The like results for `Nc1nc2c(-c3c(C4CCC4)cc4c(N5CCNCC5)ncnc4c3F)ccc(F)c2s1` [Compound 154] were, in that order, 10 to 30 µM and 10 to 30 µM.
The like results for `CN1CCC[C@H]1COc1nc(N2CCNCC2)c2cc(-c3cccnc3)c(-c3ccc(F)c4sc(N)nc34)c(F)c2n1` [Compound 155, 7-fluoro-4-(8-fluoro-2-(((S)-1-methylpyrrolidin-2-yl)methoxy)-4-(piperazin-1-yl)-6-(pyridin-3-yl)quinazolin-7-yl)benzo[d]thiazol-2-amine] were, in that order, 10 to 30 µM and 1 to 10 µM.
Take `CN(c1nc(OC[C@@H]2C[C@@H](F)CN2C)nc2c(F)c(-c3ccc(F)c4sc(N)nc34)c(C(F)(F)F)cc12)C1CN(C(=O)CN)C1` [Compound 156]: the IC50 in experiment [1] and in experiment [2] was 10 to 30 µM each time.
In the case of `Nc1nc2c(-c3c(-c4ccoc4)cc4c(N5CC6CCC(C5)N6)nc(OCC56CCCN5CCC6)nc4c3F)ccc(F)c2s1` [Compound 159], the IC50 is 0.1 to 1 µM in experiment [1] and 10 to 30 µM in experiment [2].
Regarding `CN1CC(F)(F)C[C@H]1COc1nc(N2CCNCC2)c2cc(C(F)(F)F)c(-c3ccc(F)c4sc(N)nc34)c(F)c2n1` [Compound 160], the IC50 in experiment [1] and in experiment [2] was 10 to 30 µM in each case.
On to `Oc1cc(-c2c(Cl)cc3c(N4CC5CCC(C4)N5)nc(OCC45CCCN4CCC5)nc3c2F)c2ccccc2c1` [Compound 161], for which the half-inhibitory concentration (IC50) in experiment [1] and in experiment [2] was 1 to 10 µM in each case.
For the molecule `NC(=O)N1CCN(c2nc(OCC34CCCN3CCC4)nc3c(F)c(-c4ccc(F)c5sc(N)nc45)c(Cl)cc23)CC1` [Compound 162], the concentration for half-maximal inhibition (IC50) in experiment [1] and in experiment [2] was 10 to 30 µM in each case.
In the case of `CN(c1nc(OCC23CCCN2CCC3)nc2c(F)c(-c3ccc(F)c4sc(N)nc34)c(-c3ccoc3)cc12)C1CN(C(=O)CN)C1` [Compound 163], the IC50 in experiment [1] and in experiment [2] was 10 to 30 µM each time.
Regarding `CN(c1nc(OCC23CCCN2CCC3)nc2c(F)c(-c3ccc(F)c4sc(N)nc34)c(Cl)cc12)C1CN(C(=O)CN)C1` [Compound 164], the IC50 in experiment [1] and in experiment [2] was 10 to 30 µM throughout.
For `NC(=O)N1CCN(c2nc(OCC34CCCN3CCC4)nc3c(F)c(-c4ccc(F)c5sc(N)nc45)c(C(F)(F)F)cc23)CC1` [Compound 165, 4-(7-(2-amino-7-fluorobenzo[d]thiazol-4-yl)-8-fluoro-2-((tetrahydro-1H-pyrrolizin-7a(5H)-yl)methoxy)-6-(trifluoromethyl)quinazolin-4-yl)piperazine-1-carboxamide], the 50% inhibitory concentration (IC50) in experiment [1] and in experiment [2] was 10 to 30 µM each time.
For `CN(c1nc(OC[C@@H]2CCCN2CCF)nc2c(F)c(-c3ccc(F)c4sc(N)nc34)c(C(F)(F)F)cc12)C1CNC1` [Compound 166], the half-inhibitory concentration (IC50) in experiment [1] and in experiment [2] was 10 to 30 µM throughout.
With `CCN(c1nc(OC[C@@H]2CCCN2C)nc2c(F)c(-c3ccc(F)c4sc(N)nc34)c(C(F)(F)F)cc12)C1CNC1` [Compound 170], the IC50 in experiment [1] and in experiment [2] was 10 to 30 µM in each case.
On to `CN1CCC[C@H]1COc1nc(N2CCNCC2)c2cc(CC#N)c(-c3ccc(F)c4sc(N)nc34)c(F)c2n1` [Compound 175, 2-[7-(2-amino-7-fluoro-1,3-benzothiazol-4-yl)-8-fluoro-2-[[(2S)-1-methylpyrrolidin-2-yl]methoxy]-4-piperazin-1-yl-quinazolin-6-yl]acetonitrile], for which the figures for the IC50 in experiment [1] and in experiment [2] were 10 to 30 µM and 1 to 10 µM, respectively.
For `CN1CCC[C@H]1COc1nc(N2CCNCC2)c2cc(-c3cnn(C)c3)c(-c3ccc(F)c4sc(N)nc34)c(F)c2n1` [Compound 176], in that order: 10 to 30 µM and 10 to 30 µM.
In the case of `CCc1cc2c(N3CCNCC3)nc(OC[C@@H]3CCCN3C)nc2c(F)c1-c1ccc(F)c2sc(N)nc12` [Compound 177, 4-(6-ethyl-8-fluoro-2-(((S)-1-methylpyrrolidin-2-yl)methoxy)-4-(piperazin-1-yl)quinazolin-7-yl)-7-fluorobenzo[d]thiazol-2-amine], the half-maximal inhibitory concentration (IC50) in experiment [1] and in experiment [2] was 10 to 30 µM each time.
Turning to `N#CCCN1CCC[C@H]1COc1nc(NC2CNC2)c2cc(Cl)c(-c3ccc(F)c4sc(N)nc34)c(F)c2n1` [Compound 178], the IC50 in experiment [1] and in experiment [2] was 10 to 30 µM throughout.
As to `CC(C)N(c1nc(OC[C@@H]2CCCN2C)nc2c(F)c(-c3ccc(F)c4sc(N)nc34)c(Cl)cc12)C1CNC1` [Compound 180], the half-maximal inhibitory concentration (IC50) in experiment [1] and in experiment [2] was 10 to 30 µM in each case.
Take `NCC(=O)N1CCN(c2nc(OC[C@]34CCCN3C[C@H](F)C4)nc3c(F)c(-c4ccc(F)c5sc(N)nc45)c(C(F)(F)F)cc23)CC1` [Compound 181]: the IC50 in experiment [1] and in experiment [2] was 1 to 10 µM each time.
Turning to `CN(c1nc(OCC23CCCN2CCC3)nc2c(F)c(-c3ccc(F)c4sc(N)nc34)c(Cl)cc12)C1CN(C(N)=O)C1` [Compound 182], the IC50 lay within 1 to 10 µM in experiment [1] and 10 to 30 µM in experiment [2].
`CN1CCC[C@H]1COc1nc(N(CCC#N)C2CN(C(=O)CN)C2)c2cc(Cl)c(-c3ccc(F)c4sc(N)nc34)c(F)c2n1` [Compound 183]: the IC50 in experiment [1] and in experiment [2] was 10 to 30 µM throughout.
Turning to `NC(=O)N1CCN(c2nc(OCC34CCCN3CCC4)nc3c(F)c(-c4ccc(F)c5sc(N)nc45)c(-c4ccoc4)cc23)CC1` [Compound 186], the IC50 in experiment [1] and in experiment [2] was 10 to 30 µM in each case.
On to `Nc1nc2c(-c3c(C(F)(F)F)cc4c(N5CCNCC5)nc(OCC56CCCN5CCC6)nc4c3F)ccc(F)c2o1` [Compound 189], for which the half-inhibitory concentration (IC50) in experiment [1] and in experiment [2] was 1 to 10 µM in each case.
Take `CC1(Nc2nc(OCC34CCCN3CCC4)nc3c(F)c(-c4ccc(F)c5sc(N)nc45)c(Cl)cc23)CNC1` [Compound 190]: the half-inhibitory concentration (IC50) in experiment [1] and in experiment [2] was 1 to 10 µM in each case.
As for `CN1CCC[C@H]1COc1nc(N2CCNCC2)c2cc(OC(F)(F)F)c(-c3ccc(F)c4sc(N)nc34)c(F)c2n1` [Compound 191], the IC50 in experiment [1] and in experiment [2] was 1 to 10 µM in each case.
`Nc1nc2c(-c3c(Cl)cc4c(NC5CNC5)nc(OCC56CCCN5CCC6)nc4c3F)ccc(F)c2o1` [Compound 192]: the 50% inhibitory concentration (IC50) in experiment [1] and in experiment [2] was 1 to 10 µM throughout.
Regarding `CCN(c1nc(OC[C@@H]2CCCN2C)nc2c(F)c(-c3ccc(F)c4sc(N)nc34)c(Cl)cc12)C1CNC1` [Compound 196], the IC50 in experiment [1] and in experiment [2] was 10 to 30 µM each time.
Consider `CCN(c1nc(OC[C@@H]2CCCN2C)nc2c(F)c(-c3ccc(F)c4sc(N)nc34)c(Cl)cc12)C1CN(C(=O)CN)C1` [Compound 197], for which the IC50 in experiment [1] and in experiment [2] was 10 to 30 µM throughout.
In the case of `CC1(C)CN2CCCC2(COc2nc(N3CCNCC3)c3cc(C(F)(F)F)c(-c4ccc(F)c5sc(N)nc45)c(F)c3n2)C1` (stereo not shown) [Compound 198], the IC50 in experiment [1] and in experiment [2] was 1 to 10 µM each time.
`CN(c1nc(OCC23CCCN2CC(C)(C)C3)nc2c(F)c(-c3ccc(F)c4sc(N)nc34)c(C(F)(F)F)cc12)C1CNC1` (stereo not shown) [Compound 201]: the half-inhibitory concentration (IC50) in experiment [1] and in experiment [2] was 10 to 30 µM each time.
Regarding `NCC(=O)N1CC[C@@H]2[C@H]1CN2c1nc(OCC23CCCN2CCC3)nc2c(F)c(-c3ccc(F)c4sc(N)nc34)c(C(F)(F)F)cc12` [Compound 202], the concentration for half-maximal inhibition (IC50) in experiment [1] is 0.1 to 1 µM; in experiment [2], 1 to 10 µM.
For `CN1CCC[C@H]1COc1nc(N2CCNCC2)c2cc(C3(C#N)CCC3)c(-c3ccc(F)c4sc(N)nc34)c(F)c2n1` [Compound 203, 1-[7-(2-amino-7-fluoro-1,3-benzothiazol-4-yl)-8-fluoro-2-[[(2S)-1-methylpyrrolidin-2-yl]methoxy]-4-piperazin-1-yl-quinazolin-6-yl]cyclobutanecarbonitrile], in that order: 10 to 30 µM and 10 to 30 µM.
For `CN(c1nc(OC[C@@H]2CC(F)(F)CN2C)nc2c(F)c(-c3ccc(F)c4sc(N)nc34)c(C(F)(F)F)cc12)C1CNC1` [Compound 204], in that order: 10 to 30 µM and 10 to 30 µM.
In the case of `Cc1cc2c(N3CCNCC3)nc(OC[C@@H]3CCCN3C)nc2c(F)c1-c1ccc(F)c2sc(N)nc12` [Compound 205], the 50% inhibitory concentration (IC50) in experiment [1] and in experiment [2] was 10 to 30 µM each time.
With `Nc1nc2c(-c3c(C(F)(F)F)cc4c(N5CCNCC5)nc(OC[C@@]56CCCN5C[C@H](F)C6)nc4c3F)ccc(F)c2s1` [Compound 206], the concentration for half-maximal inhibition (IC50) in experiment [1] fell in the range of 0.1 to 1 µM; in experiment [2], 1 to 10 µM.
For `CN1CCC[C@H]1COc1nc(N(CCO)C2CNC2)c2cc(Cl)c(-c3ccc(F)c4sc(N)nc34)c(F)c2n1` [Compound 208], in that order: 10 to 30 µM and 10 to 30 µM.
Take `C[C@@H]1CNCCN1c1nc(OC[C@]23CCCN2C[C@H](F)C3)nc2c(F)c(-c3ccc(F)c4sc(N)nc34)c(C(F)(F)F)cc12` [Compound 209]: the 50% inhibitory concentration (IC50) was 0.1 to 1 µM in experiment [1] and 1 to 10 µM in experiment [2].
